Values joined by “and” are separate entries in the source; they are usually repeats but may differ in a detail not shown here. Equal values may be shown once.
Experiments:
[1] = biological target: T1, Brd2(2) (Homo sapiens, UniProt P25440); assay: DSF thermal shift; assay type: binding; details: wild type
T1 construct: Plasmids of the eight single BET bromodomain constructs Brd2(1), Brd2(2), Brd3(1), Brd3(2); His6 (N); made in house; host or cells: E. coli BL21(DE3)

[2] = biological target: T2, Brd3(1) (Homo sapiens, UniProt Q15059); assay: DSF thermal shift; assay type: binding; details: wild type
T2 construct: Plasmids of the eight single BET bromodomain constructs Brd2(1), Brd2(2), Brd3(1), Brd3(2); His6 (N); made in house; host or cells: E. coli BL21(DE3)
T2 sequence (Q15059 34-140 limits assumed): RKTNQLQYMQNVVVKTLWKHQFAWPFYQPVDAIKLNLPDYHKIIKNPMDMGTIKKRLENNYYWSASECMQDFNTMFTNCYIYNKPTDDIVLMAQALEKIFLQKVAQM

[3] = biological target: T3, Brd2(1) (Homo sapiens, UniProt P25440); assay: DSF thermal shift; assay type: binding; details: wild type
T3 construct: Plasmids of the eight single BET bromodomain constructs Brd2(1), Brd2(2), Brd3(1), Brd3(2); His6 (N); made in house; host or cells: E. coli BL21(DE3)
T3 sequence (P25440 74-180 limits assumed): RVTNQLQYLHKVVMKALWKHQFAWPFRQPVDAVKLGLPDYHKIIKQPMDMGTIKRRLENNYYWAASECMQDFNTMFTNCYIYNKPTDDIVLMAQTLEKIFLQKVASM

[4] = biological target: T4, Brdt(2) (Homo sapiens, UniProt Q58F21); assay: DSF thermal shift; assay type: binding; details: wild type
T4 construct: Plasmids of the eight single BET bromodomain constructs Brd2(1), Brd2(2), Brd3(1), Brd3(2), Brd4(1), Brd4(2), Brdt(1) and Brdt(2); His6 (N); made in house; host or cells: E. coli BL21(DE3)

[5] = biological target: T5, brd3(2)L344A (Homo sapiens, UniProt Q15059, L345A); assay: DSF thermal shift; assay type: binding; details: mutant
T5 construct: Plasmids of the eight single BET bromodomain constructs Brd2(1), Brd2(2), Brd3(1), Brd3(2), Brd4(1), Brd4(2), Brdt(1) and Brdt(2); His6 (N); made in house; host or cells: E. coli BL21(DE3)
T5 sequence (Q15059 306-415 L345A): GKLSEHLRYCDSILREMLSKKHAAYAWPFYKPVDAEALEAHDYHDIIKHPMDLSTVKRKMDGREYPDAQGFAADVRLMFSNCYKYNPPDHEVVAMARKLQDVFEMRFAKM

[6] = biological target: T6, Brd3(2) (Homo sapiens, UniProt Q15059); assay: DSF thermal shift; assay type: binding; details: wild type
T6 construct: Plasmids of the eight single BET bromodomain constructs Brd2(1), Brd2(2), Brd3(1), Brd3(2), Brd4(1), Brd4(2), Brdt(1) and Brdt(2); His6 (N); made in house; host or cells: E. coli BL21(DE3)
T6 sequence (Q15059 306-415 limits assumed): as the sequence (Q15059 306-415 L345A) above, with A40L counted along it

[7] = biological target: T7, brdt(2)L306A (Homo sapiens, UniProt Q58F21, L306A); assay: DSF thermal shift; assay type: binding; details: mutant
T7 construct: Plasmids of the eight single BET bromodomain constructs Brd2(1), Brd2(2), Brd3(1), Brd3(2), Brd4(1), Brd4(2), Brdt(1) and Brdt(2); His6 (N); made in house; host or cells: E. coli BL21(DE3)

[8] = biological target: T8, Brdt(1) (Homo sapiens, UniProt Q58F21); assay: DSF thermal shift; assay type: binding; details: wild type
T8 construct: Plasmids of the eight single BET bromodomain constructs Brd2(1), Brd2(2), Brd3(1), Brd3(2), Brd4(1), Brd4(2), Brdt(1) and Brdt(2); His6 (N); made in house; host or cells: E. coli BL21(DE3)

[9] = biological target: Brd2(1)*(Leu110-Ala) (Homo sapiens, UniProt P25440, L110A); assay: ITC reverse titration of protein into compound; assay type: binding; set-up: Plasmids of the eight single BET bromodomain constructs Brd2(1), Brd2(2), Brd3(1), Brd3(2), Brd4(1), Brd4(2), Brdt(1) and Brdt(2); His6 (N); made in house; host or cells: E. coli BL21(DE3); details: for ΔH Brd2(1)* (Leu110-Ala): ITC 25° C.; for Selectivity factor Kd WT/Kd Leu/Ala: 30° C.
Chain of Brd2(1)*(Leu110-Ala) (P25440 74-180 L110A limits assumed): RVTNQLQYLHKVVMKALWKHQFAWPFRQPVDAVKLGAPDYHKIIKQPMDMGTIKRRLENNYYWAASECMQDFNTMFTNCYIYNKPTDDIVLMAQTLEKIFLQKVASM
Procedure: (§1) ITC experiments were carried out on a ITC200 instrument from MicroCal™ Experiments were conducted at 3 different temperatures 15° C., 25° C. and 30° C., while stirring at 1000 rpm. Buffers of proteins, peptide and compounds were matched to 20 mM HEPES pH 7.5 at 25° C. and 100 mM NaCl. Frozen protein was buffer exchanged as described for the DSF experiments. Each titration comprised 1 initial injection of 0.4 μl lasting 0.8 s, followed by 19 injections of 2 μl lasting 4 s each at 2 min intervals. The initial injection was discarded during data analysis. Standard and reverse titrations were conducted depending on the binding partners.
(§2) Reverse titrations were conducted to test the binding of the known ligands and the novel chemical probes to the wild types and the mutants. Experiments were carried out either at 25° C. or 30° C. […] In cases where the compound was solubilized in dimethyl sulfoxide, DMSO concentration was adjusted to 1% both in the syringe and in the cell.
(§3) All the data was fitted to a single binding site model using the Microcal LLC ITC200 Origin software provided by the manufacturer to yield enthalpies of binding (ΔH) and binding constants (Kas). Further thermodynamic parameters were calculated from these values (changes in entropy ΔS, changes in free energy AG and dissociation constants (Kds)).

[10] = biological target: Brd2(2)*(Leu383-Ala) (Homo sapiens, UniProt P25440, L383A); assay: ITC reverse titration of protein into compound; assay type: binding; set-up: Plasmids of the eight single BET bromodomain constructs Brd2(1), Brd2(2), Brd3(1), Brd3(2), Brd4(1), Brd4(2), Brdt(1) and Brdt(2); His6 (N); made in house; host or cells: E. coli BL21(DE3); details: for ΔH Brd2(2)* (Leu383-Ala) / Kd: ITC 25° C.; for Kd: Kd Brd2(2)* (Leu383-Ala); for Selectivity factor Kd WT/Kd Leu/Ala: 30° C.
Chain of Brd2(2)*(Leu383-Ala) (P25440 344-453 L383A limits assumed): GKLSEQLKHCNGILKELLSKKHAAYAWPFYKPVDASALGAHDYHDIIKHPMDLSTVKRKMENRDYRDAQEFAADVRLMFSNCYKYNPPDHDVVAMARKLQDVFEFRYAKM
Procedure: as §1, §2, §3

[11] = biological target: T9, brdt(1)L063A (Homo sapiens, UniProt Q58F21, L63A); assay: DSF thermal shift; assay type: binding; details: mutant
T9 construct: Plasmids of the eight single BET bromodomain constructs Brd2(1), Brd2(2), Brd3(1), Brd3(2), Brd4(1), Brd4(2), Brdt(1) and Brdt(2); His6 (N); made in house; host or cells: E. coli BL21(DE3)

[12] = biological target: T10, Brd3(1)* (L070A) (Homo sapiens, UniProt Q15059, L70A); assay: DSF thermal shift; assay type: binding; details: mutant
T10 construct: Plasmids of the eight single BET bromodomain constructs Brd2(1), Brd2(2), Brd3(1), Brd3(2); His6 (N); made in house; host or cells: E. coli BL21(DE3)
T10 sequence (Q15059 34-140 L70A limits assumed): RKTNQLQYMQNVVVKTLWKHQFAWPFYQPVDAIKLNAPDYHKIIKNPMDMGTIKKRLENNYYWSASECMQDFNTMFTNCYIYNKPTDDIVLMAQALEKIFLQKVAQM

[13] = test system: Brd2(1) and (2) wild type and leucine to alanine, valine and isoleucine mutants; assay: DSF thermal stabilization (FIG. 15); assay type: binding, human; details: result in words
Procedure: DSF assays were performed on a LightCycler®480 from Roche or a Mx3005P Real Time PCR machine from Stratagene. […] SYPRO®Orange from Invitrogen Molecular Probes® was used as a reporter dye to monitor the denaturing process of the proteins. Samples were assayed on a 96-well plate with final protein concentrations of 2 μM for the LightCycler®480 and 6 μM for Mx3005P. Compounds were added at a final concentration of 10 μM for the LightCycler®480 and 30 μM for Mx3005P, while the tetra acetylated histone peptide was added to a final concentration of 100 μM and 300 μM respectively. […] The temperature was raised with a step of 0.6° C. per minute from 37° C. to 95° C. with the LightCycler®480 collecting 39 measurements per ° C., and 1° C. per minute from 25° C. to 95° C. with Mx3005P, collecting fluorescence readings at the end of each interval. Each sample was run in triplicates.
Collected data was analysed by IGOR Pro 6, a scientific software tool from Wave Metrics, Inc. Analysis was done following the recommendations of Niesen et al.. Fluorescence intensity was plotted as a function of temperature, generating a sigmoidal curve described by a two-state transition from folded to unfolded protein. Curves were fitted by the following sigmoidal equation: […]
A1 and A2 are the values of minimum and maximum intensities, respectively, x0 is the inflection point and dx is the rate. Fitted curves were differentiated in IGOR Pro 6 and the maximum of the first derivative was identified using the same program. These values correspond to the inflection points of the transition curves and thus to the melting temperatures of the proteins (Tm).

T1 sequence (P25440 344-453 limits assumed): as the sequence (P25440 344-453 L383A limits assumed) above, with A40L counted along it

COC(=O)[C@H](C)[C@@H]1N=C(c2ccc(Cl)cc2)c2cc(OC)ccc2-n2c(C)nnc21 (racemic) [Compound 7, (+−)-methyl (R)-2-((S)-6-(4-chlorophenyl)-8-methoxy-1-methyl-4H-benzo[f][1,2,4]triazolo[4,3-a][1,4]diazepin-4-yl)propanoate]
Thermal stabilisation brd2(2) [1]: 5.6 ± 0.1 °C
ΔTm Brd2(2) [1]: 5.6 ± 0.1 K
Thermal stabilisation brd2(2) ([1]; listed as compound 7): 5.6 °C
ΔTm Brd3(1) [2]: 5.9 ± 0.2 K
Thermal stabilisation brd2(1) [3]: 3.2 ± 0.2 °C
ΔTm Brd2(1) [3]: 3.2 ± 0.2 K
Thermal stabilisation brd2(1) ([3]; listed as compound 7): 3.2 °C
ΔTm Brdt(2) [4]: 3.7 ± 0.3 K
ΔTm Brd3(2)* (L344A) [5]: 15.6 ± 0.4 K
ΔTm Brd3(2) [6]: 6.7 ± 1.0 K
ΔTm Brdt(2)* (L306A) [7]: 7.9 ± 0.2 K
ΔTm Brdt(1) [8]: 5.3 ± 0.3 K
Kd [9]: 17 nM
ΔH Brd2(1)* (Leu110-Ala) [9]: −16780 ± 161.4 cal/mol
ΔH Brd2(2)* (Leu383-Ala) [10]: -12.61 ± 0.08606 kcal/mol
Kd [10]: 22 nM and 22.3 nM
ΔTm Brdt(1)* (L063A) [11]: 5.8 ± 0.3 K
ΔTm Brd3(1)* (L070A) [12]: 10.8 ± 0.3 K
Thermal stabilization of Brd2 mutants versus wild types (FIG. 15) [13]: increased thermal shifts of the leucine to alanine mutants

CC[C@@H](C(=O)OC)[C@@H]1N=C(c2ccc(Cl)cc2)c2cc(OC)ccc2-n2c(C)nnc21 (racemic) [Compound 11, (+−)-methyl (R)-2-((S)-6-(4-chlorophenyl)-8-methoxy-1-methyl-4H-benzo[f][1,2,4]triazolo[4,3-a][1,4]diazepin-4-yl)butanoate]
ΔTm Brd2(2) [1]: 1.6 ± 0.1 K
ΔTm Brd3(1) [2]: 2.2 ± 0.1 K
ΔTm Brd2(1) [3]: 1.2 ± 0.2 K
ΔTm Brdt(2) [4]: 1.3 ± 0.3 K
ΔTm Brd3(2)* (L344A) [5]: 13.4 ± 0.6 K
ΔTm Brd3(2) [6]: 2.6 ± 0.7 K
ΔTm Brdt(2)* (L306A) [7]: 6.7 ± 0.4 K
ΔTm Brdt(1) [8]: 1.5 ± 0.4 K
Kd [9]: 42.7 ± 7.8 nM
ΔH Brd2(1)* (Leu110-Ala) [9]: −16220 ± 130.9 cal/mol
Selectivity factor Kd WT/Kd Leu/Ala ([9]; brd2(1)L110A vs WT brd2(1)): 123
Selectivity factor Kd WT/Kd Leu/Ala ([9]; brd2(1)L110A vs WT brd2(2)): 236
Selectivity factor Kd WT/Kd Leu/Ala ([9]; brd2(1)L110A vs WT brd3(1)): 96
Selectivity factor Kd WT/Kd Leu/Ala ([9]; brd2(1)L110A vs WT brd3(2)): 101
Selectivity factor Kd WT/Kd Leu/Ala ([9]; brd2(1)L110A vs WT brd4(1)): 174
Selectivity factor Kd WT/Kd Leu/Ala ([9]; brd2(1)L110A vs WT brd4(2)): 138
Selectivity factor Kd WT/Kd Leu/Ala ([9]; brd2(1)L110A vs WT brdt(1)): 117
Selectivity factor Kd WT/Kd Leu/Ala ([9]; brd2(1)L110A vs WT brdt(2)): 167
Selectivity against all other bromodomains ([9]; mutated Brd2(1) vs all other (wild type) bromodomains): ≥ 96 fold
ΔH Brd2(2)* (Leu383-Ala) [10]: -10.71 ± 0.1028 kcal/mol
Kd [10]: 21.7 ± 5.6 nM
Selectivity factor Kd WT/Kd Leu/Ala ([10]; brd2(2)L383A vs WT brd2(1)): 105
Selectivity factor Kd WT/Kd Leu/Ala ([10]; brd2(2)L383A vs WT brd2(2)): 203
Selectivity factor Kd WT/Kd Leu/Ala ([10]; brd2(2)L383A vs WT brd3(1)): 82
Selectivity factor Kd WT/Kd Leu/Ala ([10]; brd2(2)L383A vs WT brd3(2)): 87
Selectivity factor Kd WT/Kd Leu/Ala ([10]; brd2(2)L383A vs WT brd4(1)): 150
Selectivity factor Kd WT/Kd Leu/Ala ([10]; brd2(2)L383A vs WT brd4(2)): 118
Selectivity factor Kd WT/Kd Leu/Ala ([10]; brd2(2)L383A vs WT brdt(1)): 101
Selectivity factor Kd WT/Kd Leu/Ala ([10]; brd2(2)L383A vs WT brdt(2)): 144
ΔTm Brdt(1)* (L063A) [11]: 5.4 ± 0.3 K
ΔTm Brd3(1)* (L070A) [12]: 10.4 ± 0.3 K
Thermal stabilization of Brd2 mutants versus wild types (FIG. 15) [13]: increased thermal shifts of the leucine to alanine mutants

From patent US20170122958A1, “Enzymes Functional Probes” (University of Dundee, priority 2013, published 2017)
